Tests used:
[1] = test system: BKPyV; assay: BKPyV infection of RPTE/TERT1 cells, immunofluorescence count of LTAg / VP1 positive cells; assay type: cell-based, BK polyomavirus; conditions: 48 hpi; for early gene (LTAg) expression, LTAg positive cells as a proportion of DAPI-positive cells / late gene (VP1) expression, VP1 positive cells as a proportion of DAPI-positive cells: particularly at double proliferative IC50 (20 µM PF-9366, 514 nM AG-270), MOI 1
Experimental: (A) Effect of PF-9366 on viral early gene expression: Cells were infected with BKPyV (MOI 1) in media containing appropriate drug concentrations. At 1 hpi infectious media was removed, cells were washed and fresh media with appropriate drug concentrations was added. Cells were formaldehyde fixed at 48 hpi and stained for DAPI and LTAg expression and detected by fluorescence microscopy. The number of infected LTAg positive cells were recorded, normalized to cell number. n=3.
Effect of drug treatment on cellular replication and survival and viral early gene expression: Cells were infected with BKPyV (MOI 1) in media containing appropriate drug concentrations. At 1 hpi infectious media was removed, cells were washed and fresh media with appropriate drug concentrations was added. Cells were formaldehyde fixed at 48 hpi and stained for nuclear DAPI and LTAg expression, then detected by fluorescence microscopy. The number of cells per well were determined through DAPI analysis (i) Effect of drug treatment on viral early and late gene expression: The number of infected cells were determined by LTAg (early gene) and VP1 (late gene) expression (ii).
Treatment began 3 hours prior to infection and continued throughout infection. Cells were infected with BKPyV (MOI 1), at 1 hpi cells were washed with PBS and replenished with fresh drug treated media. At 48 hpi cells were fixed with 3% formaldehyde and stained for LTAg expression, and the nuclei counterstained with DAPI. The number of LTAg positive cells were counted and normalised to the total cell number in each condition, and the fold change in proportion of LTAg positive cells for each concentration of PF-9366 was normalised to untreated control.
To investigate whether MAT2A inhibition by a structurally different inhibitor to PF-9366 could cause similar effects, the effect of AG-270 on BKPyV infection was investigated. As above, drugs were used to treat cells from 3 hours prior to infection. Drug concentrations used were the IC50 value defined by inhibition of cell proliferation (proliferative IC50) or double the proliferative IC50, and DMSO was used as a control. Cells were infected with BKPyV (MOI 1), at 1 hpi cells were washed and fresh drug-containing media was added. At 48 hpi cells were fixed in 3% formaldehyde and stained for DAPI, viral early gene LTAg, and viral late gene VP1. The number of cells in each condition were counted and normalised to DMSO treated cells (FIG. 4A(i)). The number of cells represents both cell viability, and the ability of the drug in question to inhibit cellular proliferation.
(§1) For BKPyV infections, RPTE/TERT1, RPTE/TERT1-Cas9 or RPTE/TERT1 MAT2A KO cells were infected with BKPyV at either a multiplicity of infection (MOI) of 5 for growth curves or an MOI of 3 or 1 for all other experiments, diluted in appropriate medium. At 1 hour post infection (hpi) medium was removed, cells were washed twice with phosphate-buffered saline (PBS), and fresh medium was added with or without inhibitors. At 24, 48, 72 or 96 hpi cells were either harvested for western blot, RT qPCR or virus titre by FFU assay, or fixed for immunofluorescence analysis.
For fluorescence intensity analysis, 20 fields of view were captured for each experiment. All quantification analyses were carried out using ImageJ and an optimised robust automated detection pipeline Schindelin et al. (Nat Methods. 2012 Jun. 28; 9 (7): 676-82). […] LTAg-staining patterns across each field of view were measured by quantifying the fluorescence intensity using the Mean Grey Value (MGV) function of ImageJ and averaging the results for each experimental condition. Individual cell fluorescence intensity was determined by drawing polygon selections around each LTAg-positive nuclei in ImageJ and measuring the nuclear area, MGV and integrated density, then doing the same for background areas close to each nuclei measured. […]

[2] = test system: BKPyV; assay: Fluorescence focus unit (FFU) assay of infectious BKPyV from treated RPTE/TERT1 cells; assay type: cell-based, BK polyomavirus; conditions: for reduction in infectious virus production: BKPyV MOI 1
Experimental: (B) Effect of PF-9366 on viral replication: Cells were infected with BKPyV (MOI 1) in media containing appropriate drug concentrations. At 1 hpi infectious media was removed, cells were washed and fresh media with appropriate drug concentrations was added. At 48 hpi cells were harvested and infectious BKPyV was measured by FFU assay. n=3.
Cells were treated with MAT2A inhibitors at 1 hr post infection and were harvested at 48 hr post infection at MOI 1. (A) Total infectious BKPyV synthesis expressed as fold change to DMSO control (FFU titre assay). (B) Total viral protein expression (LTAg and VP1) was analysed by western blot. Tubulin was used as loading control. All error bars represent SEM. Two sample paired T-test was used to determine significance (*p<0.05; **p<0.01; ***p<0.001, ****p<0.0001), all numerical data shown were obtained over 2 independent experiments.
RPTE/hTERT cells were treated with inhibitors at 1 hr post infection (PI), infected at MOI 1. (A) Viral growth curves using FFU titre assay in drug treated and untreated cells infected with BKPyV at MOI 1 for 48 hr PI, 72 hr PI and 96 hr PI. (B) Total viral protein expression (LTAg and VP1) from drug treatments and untreated control was analysed by western blot with samples harvested at 48 hr PI and 96 hr PI. Tubulin was used as loading control. All error bars represent SEM. All numerical data shown were obtained over 2 independent experiments.
The ability for PF-9366 to inhibit the production of infectious virus was then investigated. RPTE/TERT1 cells were once again treated with a concentration range of PF-9366 or DMSO as a control prior to infection, and as before, infected with BKPyV (MOI 1) then washed and media replaced at 1 hpi. At 48 hpi total virus was harvested from each condition and an FFU assay was conducted to determine BKPyV virus titre (FIG. 3B).
as §1
FFU assays were used to determine the concentration of infectious BKPyV in experimental samples. RPTE/TERT1 cells were infected with sample dilutions, fixed at 48 hpi in 3% formaldehyde, and immunostained for VP1 expression as described in Evans et al. (Open Biol. 2015 August; 5 (8): 150041).
Example 1: PF-9366 (Sigma-Aldrich) and AG-270 (kindly supplied by Astra Zeneca) were diluted in 100% DMSO. Cells were drug treated at a range of concentrations in REBM supplemented with BulletKit (Lonza) for 3 hours prior to infection. Cells were infected with BK-Dunlop in media and appropriate drug dilution. At 1 hpi infectious media was removed, cells gently washed with PBS and media containing appropriate drug dilutions was added. At 48 hpi cells were either fixed in 3% formaldehyde for microscopy, or harvested by scraping up into fresh drug-free media.
TSG101 inhibitor Ilaprazole (Sigma-Aldrich) was diluted in 100% DMSO. Cells were treated at a range of inhibitor concentrations and combinations, in appropriate media for the cell type used, for either 3 hours prior to infection (HSV-1, Alphavirus and Flavivirus infections) or 1 hour post infection (BKPyV infection).

[3] = test system: cell proliferation; conditions: value used to set treatment concentration; read-out: proliferative IC50; cited from earlier work

| SMILES | reduction in LTAg positive cells ([1]; 40 μM, BKPyV MOI 1, normalised to untreated control) [%] | number of LTAg positive cells ([1]; PF-9366 concentrations of 5 μM and above, BKPyV MOI 1, treatment from 3 h prior to infection) | early gene (LTAg) expression, LTAg positive cells as a proportion of DAPI-positive cells [1] | late gene (VP1) expression, VP1 positive cells as a proportion of DAPI-positive cells [1] | reduction in infectious virus production ([2]; 2.5 μM (lowest concentration), 48 hpi) [%] | reduction in viral titre for BKPyV ([2]; 2.5 μM, MOI 1, 48 hpi) | reduction in infectious virus production ([2]; 40 μM (maximum), 48 hpi) [%] | IC50 [3] [µM] | inhibition of BKPyV replication (total infectious BKPyV, FFU titre) ([2]; 125 nM, 250 nM, 500 nM and 1 μM, added 1 hr post infection, MOI 1, 48 hr post infection) | potency against BKPyV replication ([2]; AG270 1 μM or AZ33 125 nM in conjunction with Ilaprazole (5 μM), compared with MAT2A inhibitor alone) |
| --- | --- | --- | --- | --- | --- | --- | --- | --- | --- | --- |
| CN(C)CCc1nnc2cc(-c3ccccc3)c3cc(Cl)ccc3n12 [PF-9366] | ~95 | significantly reduced | reduced | reduced | 60 | 2-3 fold | ~95 | 10 |  |  |
| COc1ccc(-c2c(Nc3ccccn3)[nH]c3c(C4=CCCCC4)c(-c4ccccc4)nn3c2=O)cc1 [AG-270] |  |  | reduced | reduced |  |  |  | 0.257 | significant dose dependent inhibition | increased potency |

Reference: patent US20250221981A1, “MAT2A INHIBITOR AND/OR TSG101 INHIBITOR FOR USE IN ANTIVIRAL THERAPY” (CAMBRIDGE ENTERPRISE LIMITED, priority 2022, published 2025)
